From patent US7625883B1, “Glycerophosphoinositol derivatives as modulators of cytosolic A2 phospholipase” (I.R.B. Istituto di Ricerche Biotechnologiche S.R.L., priority 2000, dated 2009)
Marks after values point to notes of the source that are not given here.

Columns and labels:
[1] = tested on: cPLA2; test: release of arachidonic acid induced by the activation of cPLA2 in various cellular systems (overall statement); format: cell-based; conditions: all the cellular systems tested
Description: Evaluation of the effects of the L-α-glycero-phospho-D-mio-inositol autacoid coded example 4a on the release of arachidonic acid induced by cPLA2 in various cellular systems.
The cultures are stimulated to release arachidonic acid using various stimuli:
(§1) cPLA2-dependent mechanism, for example ATP, mastoparan, bombesin;
(§2) The cells are initially incubated with various concentrations of the compound under examination for 60 minutes or with a predefined concentration of 100 μM for various time intervals (15-180 minutes), washed two times with HBSS (Hank's Balanced Salt Solution, in the presence of Ca2+ and Mg2+ ions) added with 10 mM Hepes and 0.2% BSA—in absence of free fatty acids, pH 7.4 and stimulated with 100 μM ATP in the described buffer for 10 minutes at 37° C. The supernatant was collected in scintillation cuvettes for determination. The results are expressed as a percentage of the total release of [3H]-arachidonic acid.

[2] = tested on: Balb/c mice; test: plasma extravasation in the ear pinna of the mouse induced by substance P; conditions: compound 5 mg/kg endovenous
[3] = solubility in water; format: physicochemical
[4] = solubility in organic solvents; format: physicochemical
[5] = tested on: Swiss 3T3 fibroblasts; test: release of [3H]-arachidonic acid from Swiss 3T3 fibroblasts stimulated with ATP; format: cell-based
Description: as §1, §2
(§3) Preloaded cells were pre-incubated with various concentrations of the Example 4a for 60 minutes and then stimulated with 100 μM ATP for 10 minutes. The results are expressed as the mean±SE of two points in 3 separate experiments.

[6] = tested on: FRTL5 cells; test: release of [3H]-arachidonic acid from FRTL5 cells stimulated with ATP; format: cell-based, rat; conditions: ATP 100 μM 10 minutes
Description: FRTL5, cell line of epithelial cells from rat thyroid grown in culture. Briefly, the cells were cultured in Coon's F12 medium modified according to Ham and supplemented with 5% bovine serum, 20 mM glutamine and a mixture of six hormones. (6H-thyrotropin, insulin, transferring, cortisol, somatostatin, glicil-L-istidil-L-lysine acetate) at 37° C. in a humidified atmosphere in 5% CO2, 95% air medium changed every 3-4 days. […]
as §2
Preloaded cells are incubated with 100 μM of compound of the Example 4a for different time intervals and then stimulated with ATP (100 μM) for 10 minutes. The results are expressed as the mean±SE of two points in 3 separate experiments. The stimulation of control cells was generally 4-5 times the basal value in the corresponding intervals.
as §3

[7] = tested on: Swiss 3T3 fibroblasts; test: mastoparan-dependent release of [3H]-arachidonic acid in Swiss 3T3 fibroblasts; format: cell-based
Description: as §1, §2
Preloaded radioactively labeled cells were pre-incubated with various concentrations of the Example 4a for 60 minutes and then stimulated with 100 μM mastoparan for 10 minutes. The results are expressed as the mean±SE of two points in 3 separate experiments.

[8] = tested on: Swiss 3T3 fibroblasts; test: bombesin-dependent release of [3H]-arachidonic acid in Swiss 3T3 fibroblasts; format: cell-based; conditions: then bombesin 10 minutes
Description: as §1, §2
Preloaded cells were pre-incubated with various concentrations of the Example 4a for 60 minutes and then stimulated with bombesin for 10 minutes. The results are expressed as the mean±SE of two points in 3 separate experiments.

[9] = tested on: FRTL5 cells; test: release of [3H]-arachidonic acid induced by ionomicin in FRTL5 cells (cPLA2-independent); format: cell-based, rat; conditions: for Release of [^3H]-arachidonic acid: then 10 μM ionomicin 30 minutes
Description: FRTL5, cell line of epithelial cells from rat thyroid grown in culture. Briefly, the cells were cultured in Coon's F12 medium modified according to Ham and supplemented with 5% bovine serum, 20 mM glutamine and a mixture of six hormones. (6H-thyrotropin, insulin, transferring, cortisol, somatostatin, glicil-L-istidil-L-lysine acetate) at 37° C. in a humidified atmosphere in 5% CO2, 95% air medium changed every 3-4 days.
cPLA2-independent mechanism, for example Ca2+ ionophore, ionomicin.
as §2
Preloaded cells were pre-incubated with various concentrations of the Example 4a for 60 minutes and then stimulated with 10 μM ionomicin for 30 minutes. The results are expressed as the mean±SE of two points in 3 separate experiments.

[10] = tested on: Balb/c mice; test: plasma extravasation in the ear pinna of the mouse induced by peptide P6-11 of substance P; format: in vivo; conditions: P 6-11
[11] = compound 5 mg/kg endovenous 30 minutes before
[12] = compound 10 mg/Kg endovenous 30 minutes before

## O=P([O-])(OCC(O)CO)OC1C(O)C(O)C(O)C(O)C1O.[Na+] [Example 4, L-α-glycerol-phospho-D-mio-inositol sodium salt]
[1]
  effect on release of arachidonic acid induced by the activation of the cPLA2 (in words): more potent effect

## C[N+](C)(C)CCO.O=P([O-])(OCC(O)CO)OC1C(O)C(O)C(O)C(O)C1O [Example 5, L-α-glycero-phospho-D-mio-inositol choline salt]
[2]
  Absorbance (Evan's Blue, 620 nm): 0.222 ± 0.010

## CCCC[N+](CCCC)(CCCC)CCCC.O=P([O-])(OCC(O)CO)OC1C(O)C(O)C(O)C(O)C1O [Example 8, L-α-glycero-phospho-D-mio-inositol tetrabutylammonium salt]
[3]
  solubility in water: >10000 µg/mL
[4]; in DMF
  solubility in organic solvents: ≧10 mg/ml in DMF
[4]; in words
  solubility in organic solvents: slightly soluble in organic solvents,

## Nc1ncnc2c1ncn2[C@@H]1O[C@H](COP(=O)(O)OP(=O)(O)OP(=O)(O)O)[C@@H](O)[C@H]1O [ATP, reference compound]
[5]; stimulus alone: 100 μM ATP 10 minutes, no test compound
  Release of [^3H]-arachidonic acid % basal: 149 ± 11 % basal

## O=P([O-])(OCC(O)CO)OC1C(O)C(O)C(O)C(O)C1O.[K+] [Example 4a, L-α-glycero-phospho-D-mio-inositol potassium salt]
[6]; 0.005 μM compound, 60 minutes preincubation
  Release of [^3H]-arachidonic acid % inhibition: 10 ± 2 % inhibition
[6]; 0.01 μM compound, 60 minutes preincubation
  Release of [^3H]-arachidonic acid % inhibition: 35 ± 5 % inhibition
[6]; 0.1 μM compound, 60 minutes preincubation
  Release of [^3H]-arachidonic acid % inhibition: 41 ± 2 % inhibition
[6]; 1.0 μM compound, 60 minutes preincubation
  Release of [^3H]-arachidonic acid % inhibition: 52 ± 3 % inhibition
[6]; 10 μM compound, 60 minutes preincubation
  Release of [^3H]-arachidonic acid % inhibition: 60 ± 8 % inhibition
[6]; 50 μM compound, 60 minutes preincubation
  Release of [^3H]-arachidonic acid % inhibition: 70 ± 4 % inhibition
[6]; 100 μM compound, 15 minutes of preincubation
  Release of [^3H]-arachidonic acid % inhibition: 30 ± 4 % inhibition
[6]; 100 μM compound, 30 minutes of preincubation
  Release of [^3H]-arachidonic acid % inhibition: 42 ± 5 % inhibition
[6]; 100 μM compound, 60 minutes of preincubation
  Release of [^3H]-arachidonic acid % inhibition: 70 ± 4 % inhibition
[6]; 100 μM compound, 60 minutes preincubation
  Release of [^3H]-arachidonic acid % inhibition: 92 ± 2 % inhibition
[6]; 100 μM compound, 90 minutes of preincubation
  Release of [^3H]-arachidonic acid % inhibition: 72 ± 5 % inhibition
[6]; 100 μM compound, 120 minutes of preincubation
  Release of [^3H]-arachidonic acid % inhibition: 71 ± 6 % inhibition
[6]; 100 μM compound, 180 minutes of preincubation
  Release of [^3H]-arachidonic acid % inhibition: 92 ± 9 % inhibition
[5]; 50 μM compound 60 minutes, then 100 μM ATP 10 minutes
  Release of [^3H]-arachidonic acid % basal: 80 ± 9 % basal
[5]; 100 μM compound 60 minutes, then 100 μM ATP 10 minutes
  Release of [^3H]-arachidonic acid % basal: 70 ± 4 % basal
[7]; 50 μM compound 60 minutes, then 100 μM mastoparan 10 minutes
  Release of [^3H]-arachidonic acid % basal: 90 ± 3 % basal
[7]; 100 μM compound 60 minutes, then 100 μM mastoparan 10 minutes
  Release of [^3H]-arachidonic acid % basal: 80 ± 4 % basal
[8]; 50 μM compound 60 minutes
  Release of [^3H]-arachidonic acid % basal: 120 ± 3 % basal
[8]; 100 μM compound 60 minutes
  Release of [^3H]-arachidonic acid % basal: 90 ± 4 % basal
[9]; 50 μM compound 60 minutes
  Release of [^3H]-arachidonic acid: 720 ± 30
[9]; 100 μM compound 60 minutes
  Release of [^3H]-arachidonic acid: 450 ± 14
[9]; calcium ionophore
  effect on release of arachidonic acid induced by stimuli not related to cPLA2 (in words): does not induce reduction of the release of arachidonic acid
[10]; compound 0.5 mg/kg endovenous (Table 8)
  Absorbance x10^−2: 54 ± 4* x10^−2
[10]; compound 1.5 mg/Kg endovenous (Table 8)
  Absorbance x10^−2: 57 ± 7* x10^−2
[10]; compound 5 mg/Kg endovenous (Table 8)
  Absorbance x10^−2: 34 ± 8* x10^−2
[10]; [11]
  Absorbance (Evan's Blue, 620 nm): 0.081 ± 0.027
[1]
  effect on release of arachidonic acid induced by the activation of the cPLA2 (in words): reduce in a time and concentration dependent manner the release of arachidonic acid

## L-α-glycero-phospho-D-mio-inositol zinc salt [Example 3]
[1]
  effect on release of arachidonic acid induced by the activation of the cPLA2 (in words): more potent effect

## NCCCC[C@H](N)C(=O)O.O=P(O)(OCC(O)CO)OC1C(O)C(O)C(O)C(O)C1O [Example 6, L-α-glycero-phospho-D-mio-inositol lysine salt]
[10]; [11]
  Absorbance (Evan's Blue, 620 nm): 0.131 ± 0.022
[10]; [12]
  Absorbance (Evan's Blue, 620 nm): 0.072 ± 0.010•
[2]
  Absorbance (Evan's Blue, 620 nm): 0.239 ± 0.015

## L-α-glycero-phospho-D-mio-inositol calcium salt [Example 2]
[10]; [11]
  Absorbance (Evan's Blue, 620 nm): 0.092 ± 0.021
[10]; [12]
  Absorbance (Evan's Blue, 620 nm): 0.079 ± 0.022•

## Mastoparan [reference compound]
[7]; stimulus alone: 100 μM mastoparan 10 minutes, no test compound
  Release of [^3H]-arachidonic acid % basal: 150 ± 12 % basal
